Assays:
Format in all cases: cell-based
human CD8 T cells [1] = assay: Example 2: human CD8 T cell 10-day expansion with IL-2 and inhibitors, IL-2 after CD3/CD28 restimulation; conditions: 300 nM Compound #10, 100 nM ZM-241385, CD3/CD28 bead restimulation 7 hours
Procedure: (§1) Purified human CD8 T cells were cultured in 24-well plates according to the following conditions per well: • 1 mL X-VIVO™ 15 media (Lonza) • 1 million human CD8 T cells • 2 million Human T-Activator CD3/CD28 Dynabeads® (ThermoFisher)
(§2) and the following individual conditions: • 1. DMSO vehicle control • 2. […] 300 nM GPR174 inhibitor Compound #10 • 4.
(§3) On days 4 and 7, cultures were washed and seeded at 0.5 million cells per well with the same GPR174 and A2A inhibitor conditions, and with 100 U/mL human IL-2.
After 7 hours of culture, supernatants were harvested and analyzed for IL-2 (MesoScale Discovery).

human CD8 T cells [2] = assay: Example 3: human CD8 T cell 10-day expansion with IL-7+IL-15 and inhibitors, IL-2 after restimulation; conditions: for IL-2 production following restimulation, fold vs vehicle control (FIG. 4): 300 nM Compound #10, 100 nM ZM-241385, 18 hours restimulation; for IL-2 production following restimulation, fold vs vehicle (FIG. 5): 300 nM Compound #10, 500 nM Compound #49, 100 nM ZM-241385, 18 hours restimulation
Procedure: (§4) Purified human CD8 T cells were cultured in 24-well plates with the following conditions per well: • 2 mL X-VIVO™ 15 media (Lonza) • 1 million human CD8 T cells • 2 million Human T-Activator CD3/CD28 Dynabeads® (ThermoFisher) • 10 ng/mL human IL-7 (R&D Systems) • 10 ng/mL human IL-15 (R&D Systems)
and the following individual conditions for FIG. 4: • 1. DMSO vehicle control • 2. […] 300 nM GPR174 inhibitor Compound #10 • 4.
On days 4 and 7 (FIG. 4) or days 3, 5, and 7 (FIG. 5), cultures were washed and seeded at 0.5 cells million per well with the same GPR174 and A2A inhibitor conditions, and with 10 ng/mL IL-7 and 10 ng/mL IL-15.
After 18 hours of culture, supernatants were harvested and analyzed for IL-2 (MesoScale Discovery).

human CD8 T cells [3] = assay: Example 4: human CD8 T cell expansion with GPR174, A2A, PKA or EPAC inhibitors, IL-2 after restimulation; conditions: for IL-2 production following restimulation, fold increase vs vehicle (FIG. 6): 300 nM Compound #10, 100 nM ZM-241385, 500 μM Rp-8-Br-cAMPS, 5 μM ESI-09, 5.5 hours restimulation
Procedure: as §4, with “(Lonza) • 0.4 million human” for “(Lonza) • 1 million human”, “T cells (Donor A) • 2” for “T cells • 2”
and the following individual conditions, ±300 nM Compound #10: • 1. DMSO vehicle control • 2. […] 500 μM Rp-8-Br-cAMPS • 4. 5 μM ESI-09
On days 3, 5, and 7, cultures were washed and seeded at 0.5 cells million per well with the same small molecule inhibitor conditions, and with IL-7 and IL-15.
After 5.5 hours of culture, supernatants were harvested and analyzed for IL-2 content (MesoScale Discovery).

OT-I mouse CD8 T cells = assay: Example 1: OT-I CD8 T cell 10-day expansion with inhibitors, IL-2 after restimulation with EG7 cells; conditions: 10-day expansion with IL-7+IL-15; 300 nM Compound #10, 100 nM ZM-241385; restimulated with EG7 cells without inhibitors, 6 hours
Procedure: Purified OT-I mouse CD8 T cells (StemCell mouse CD8 T cell purification kit) were cultured in 24-well plates with C57BL/6 mouse splenocytes (pre-treated with mitomycin C to prevent growth) and pOVA according to the following condition per well: • 2 mL RP10 media (RPMI, 10% fetal calf serum, 6 mM L-Glutamine, 12.5 mM HEPES, 50 μM 2-mercaptoethanol, Penicillin, Streptomycin) • 0.2 million OT-I CD8 T cells • 1.4 million mitomycin C treated splenocytes • 100 nM pOVA
and the following individual conditions: • 1. DMSO vehicle control • 2. 300 nM GPR174 inhibitor Compound #10 • 3.
On day 3, cultures were split 1:4 with new media, the inhibitors were added back to original conditions, and mouse IL-7 and mouse IL-15 were added to 10 ng/mL. On days 5 and 8, cells were washed once, counted, and replated at 0.5 million per well with IL-7 and IL-15 and the original inhibitor conditions. On day 10, cells were counted, washed twice with 12 mL RP10, and restimulated in quadruplicate with EG7 cells (H-2 K^b thymoma expressing OVA) in 96-well round bottom plates according to the following conditions: • 0.2 mL RP10; • 0.1 million OT-I T cells from each T cell expansion condition; and • 0.5 million EG7 cells.
Supernatants were collected after 6 hours and assayed for IL-2 levels (MesoScale Discovery platform).

human CD8 T cells [4] = assay: Example 2: flow cytometry phenotype clusters (FlowSOM) of expanded human CD8 T cells; conditions: 10-day culture; relative to vehicle control
Procedure: as §1, §2, §3
In addition to restimulation, expanded T cells were characterized by flow cytometry to evaluate expression of CCR7, CD39, CD69, TIGIT, CD45RA, LAG3, T-BET. The following detection reagents were used: anti-CD8 BV510, anti-CCR7 PE-Cy7, anti-CD39 BV605, anti-CD69 BV421, anti-TIGIT eFluor450, anti-CD45RA BV750, anti-LAG3 APC-Cy7, anti-T-BET PE-dazzle594 (all from Biolegend, Invitrogen, or BD Biosciences), and LIVE/DEAD™ Fixable Green Dead Cell Stain (ThermoFisher).
Data was collected with a Cytek Northern Lights flow cytometer, and was analyzed in FlowJo, in which automated clustering was performed on a concatenated file (containing all 4 culture conditions) with the FlowSOM plugin to generate 16 clusters. The abundance of each cluster in each cell sample was exported using the Cluster Explorer plugin.

Structure (SMILES)	IL-2 production upon restimulation, fold increase vs vehicle (human CD8 T cells [1])	IL-2 production following restimulation, fold vs vehicle control (FIG. 4) (human CD8 T cells [2])	IL-2 production following restimulation, fold vs vehicle (FIG. 5) (human CD8 T cells [2])	IL-2 production following restimulation, fold increase vs vehicle (FIG. 6) (human CD8 T cells [3])	IL-2 production following restimulation, effect in the presence of Rp-8-Br-cAMPS (FIG. 6) (human CD8 T cells [3]; 300 nM Compound #10 added to 500 μM Rp-8-Br-cAMPS)	IL-2 production following restimulation, fold above Vehicle (OT-I mouse CD8 T cells) [fold]	T cell phenotype clusters enriched or reduced (CD39, CD69, TIGIT, T-BET, LAG3, CCR7, CD45RA) (human CD8 T cells [4])
CC1CCN(c2cc(N3CCN(S(=O)(=O)c4ccccc4)CC3)c([N+](=O)[O-])cc2F)CC1 [Compound 10]	1.7 fold	3 fold	approximately 1.3 fold	negligible effect	did not enhance IL-2 production	1.8	displayed this same trend, albeit to a lesser degree
Nc1nc(NCCc2ccc(O)cc2)nc2nc(-c3ccco3)nn12 [ZM-241385, ZM 241385]	did not alter IL-2 production	negligible	approximately 1.3 fold	negligible effect	–	–	relatively unchanged

— patent US20230285556A1, “METHODS AND COMPOSITIONS FOR TREATING CANCER” (Omeros Corporation, priority 2021, published 2023)
